Assay results published in ChEMBL document CHEMBL1151577, “The inhibition of C5a receptor binding by analogs of L-156,602, a cyclic hexadepsipeptide antibiotic” (Bioorg Med Chem Lett, 1992).
Values after ≈ are worked out from the molar mass of the structure shown.

Key:
[1] = biological target: T1, C5a anaphylatoxin chemotactic receptor 1 (Homo sapiens) (UniProt P21730); assay: Inhibition of radiolabeled C5a binding to its membrane bound C5a anaphylatoxin chemotactic receptor
T1 sequence (whole entry): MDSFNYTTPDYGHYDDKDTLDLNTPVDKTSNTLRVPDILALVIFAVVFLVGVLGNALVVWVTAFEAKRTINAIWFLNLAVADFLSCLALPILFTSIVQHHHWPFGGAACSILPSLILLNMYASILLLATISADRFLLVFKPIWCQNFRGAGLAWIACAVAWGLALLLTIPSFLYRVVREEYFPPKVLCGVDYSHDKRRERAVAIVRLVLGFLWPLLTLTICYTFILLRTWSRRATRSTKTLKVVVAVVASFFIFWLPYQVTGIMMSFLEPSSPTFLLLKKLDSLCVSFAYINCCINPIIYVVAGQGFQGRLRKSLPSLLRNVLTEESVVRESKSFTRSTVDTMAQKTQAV

[2] = biological target: T1, C5a anaphylatoxin chemotactic receptor 1 (Homo sapiens); assay: Nonspecific degranulation of polymorho neutrophils as measured by myeloperoxidase (MPO) release in a whole functional cell assay
[3] = biological target: T2, C5a anaphylatoxin chemotactic receptor 1 (Homo sapiens, UniProt P21730); assay: Inhibitory activity against purified binding C5a anaphylatoxin chemotactic receptor
T2 sequence (P21730 whole entry): T1 sequence (whole entry)

[4] = biological target: T1, C5a anaphylatoxin chemotactic receptor 1 (Homo sapiens); assay: Compound was evaluated for inhibition of radiolabeled C5a binding to its membrane C5a anaphylatoxin chemotactic receptor
[5] = biological target: T2, C5a anaphylatoxin chemotactic receptor 1; assay: Inhibitory activity against radiolabeled C5a receptor on neutrophil membranes expressing C5a anaphylatoxin chemotactic receptor
[6] = biological target: T2, C5a anaphylatoxin chemotactic receptor 1; assay: Inhibitory activity for C5a anaphylatoxin chemotactic receptor binding using radiolabeled C5a receptor on neutrophil membranes (~2.0 uM)
[7] = organism: Homo sapiens; assay: Degranulation of polymorho neutrophils as measured by myeloperoxidase (MPO) release in a whole functional cell assay

Structure (SMILES) | Activity [1] | Concentration causing nonspecific degranulation (MPO release) [2] | further results
CCC(C)C[C@H]1CC[C@](O)([C@](C)(O)C(=O)N[C@@H]2C(=O)N3NCCC[C@@H]3C(=O)N[C@@H](C)C(=O)NCC(=O)N3NCCC[C@H]3C(=O)N[C@H](C)C(=O)O[C@H]2C(C)C)O[C@@H]1C (single isomer, unassigned) | 40 µg/mL | > 50 µg/mL | –
CC[C@H](C)C[C@H]1CC[C@](O)([C@](C)(O)C(=O)N[C@@H]2C(=O)N3NCCC[C@@H]3C(=O)N(O)[C@@H](C)C(=O)N[C@@H](C)C(=O)N3NCCC[C@H]3C(=O)N(O)[C@H](C)C(=O)O[C@H]2C(C)C)O[C@@H]1C | 60 µg/mL | – | –
CC[C@H](C)C[C@H]1CC[C@](O)([C@](C)(O)C(=O)N[C@@H]2C(=O)N3NCCC[C@@H]3C(=O)N(O)[C@@H](C)C(=O)NCC(=O)N3NCCC[C@H]3C(=O)N(C)[C@H](C)C(=O)O[C@H]2C(C)C)O[C@@H]1C | 5 µg/mL | 4 µg/mL | –
CC[C@H](C)C[C@H]1CC[C@](O)([C@](C)(O)C(=O)N[C@@H]2C(=O)N3NCCC[C@@H]3C(=O)N(O)[C@@H](C)C(=O)NCC(=O)N3NCCC[C@H]3C(=O)N[C@H](C)C(=O)O[C@H]2C(C)C)O[C@@H]1C | 21 µg/mL | 7 µg/mL | –
CC(C)[C@@H]1OC(=O)[C@@H](C)N(O)C(=O)[C@@H]2CCCNN2C(=O)CNC(=O)[C@H](C)N(O)C(=O)[C@H]2CCCNN2C(=O)[C@H]1NC(=O)[C@](C)(O)CCCc1ccccc1 | 100 µg/mL | 12 µg/mL | –
CC[C@H](C)C[C@H]1CC[C@](O)([C@](C)(O)C(=O)N[C@@H]2C(=O)N[C@H](CCCN)C(=O)N(O)[C@@H](C)C(=O)NCC(=O)N3NCCC[C@H]3C(=O)N(O)[C@H](C)C(=O)O[C@H]2C(C)C)O[C@@H]1C | 60 µg/mL | > 200 µg/mL | –
CC[C@H](C)C[C@H]1CC[C@](O)([C@](C)(O)C(=O)N[C@@H]2C(=O)N3NCCC[C@@H]3C(=O)N(CC(=O)OC(C)(C)C)[C@@H](C)C(=O)NCC(=O)N3NCCC[C@H]3C(=O)N(O)[C@H](C)C(=O)O[C@H]2C(C)C)O[C@@H]1C | 100 µg/mL | > 50 µg/mL | –
CC[C@H](C)C[C@H]1CC[C@](O)([C@](C)(O)C(=O)N[C@@H]2C(=O)N3NCCC[C@@H]3C(=O)N(C)[C@@H](C)C(=O)NCC(=O)N3NCCC[C@H]3C(=O)N(O)[C@H](C)C(=O)O[C@H]2C(C)C)O[C@@H]1C | 5 µg/mL | 2 µg/mL | –
CC[C@H](C)C[C@H]1CC[C@](O)([C@](C)(O)C(=O)N[C@@H]2C(=O)N3NCCC[C@@H]3C(=O)N(OC)[C@@H](C)C(=O)NCC(=O)N3NCCC[C@H]3C(=O)N(O)[C@H](C)C(=O)O[C@H]2C(C)C)O[C@@H]1C | 5 µg/mL | 0.3 µg/mL | –
CC[C@H](C)C[C@H]1CC[C@](O)([C@](C)(O)C(=O)N[C@@H]2C(=O)N3NCCC[C@@H]3C(=O)N(O)[C@@H](C)C(=O)NCC(=O)N3NCCC[C@H]3C(=O)N(OC)[C@H](C)C(=O)O[C@H]2C(C)C)O[C@@H]1C | 2 µg/mL | 2 µg/mL | –
CC[C@H](C)C[C@H]1CC[C@](O)([C@](C)(O)C(=O)N[C@@H]2C(=O)N[C@H](CCCNC(C)=O)C(=O)N(O)[C@@H](C)C(=O)NCC(=O)N3NCCC[C@H]3C(=O)N(O)[C@H](C)C(=O)O[C@H]2C(C)C)O[C@@H]1C | > 100 µg/mL | > 50 µg/mL | –
CC[C@H](C)C[C@H]1CC[C@](O)([C@](C)(O)C(=O)N[C@@H]2C(=O)N3NCCC[C@@H]3C(=O)N(OCc3ccccc3)[C@@H](C)C(=O)NCC(=O)N3NCCC[C@H]3C(=O)N[C@H](C)C(=O)O[C@H]2C(C)C)O[C@@H]1C | > 100 µg/mL | 18 µg/mL | –
CC[C@H](C)C[C@H]1CC[C@](O)([C@](C)(O)C(=O)N[C@@H]2C(=O)N3[C@H](CCCN3C)C(=O)N(O)[C@@H](C)C(=O)NCC(=O)N3[C@@H](CCCN3C)C(=O)N(O)[C@H](C)C(=O)O[C@H]2C(C)C)O[C@@H]1C | 11 µg/mL | 10 µg/mL | –
CC(C)[C@@H]1OC(=O)[C@@H](C)N(O)C(=O)[C@@H]2CCCNN2C(=O)CNC(=O)[C@H](C)N(O)C(=O)[C@H]2CCCNN2C(=O)[C@H]1NC(=O)[C@@](C)(O)CCCc1ccccc1 | > 100 µg/mL | 9 µg/mL | –
CC(=O)C(=O)N[C@@H]1C(=O)N2NCCC[C@@H]2C(=O)N(O)[C@@H](C)C(=O)NCC(=O)N2NCCC[C@H]2C(=O)N(O)[C@H](C)C(=O)O[C@H]1C(C)C | > 100 µg/mL | > 13 µg/mL | –
CC[C@H](C)C[C@H]1CC[C@](O)([C@](C)(O)C(=O)N[C@@H]2C(=O)N3NCCC[C@@H]3C(=O)N(OCc3ccccc3)[C@@H](C)C(=O)NCC(=O)N3NCCC[C@H]3C(=O)N(O)[C@H](C)C(=O)O[C@H]2C(C)C)O[C@@H]1C | 4 µg/mL | 0.6 µg/mL | –
CC[C@H](C)C[C@H]1CC[C@](O)([C@](C)(O)C(=O)N[C@@H]2C(=O)N3NCCC[C@@H]3C(=O)N(C(C)=O)[C@@H](C)C(=O)NCC(=O)N3NCCC[C@H]3C(=O)N(O)[C@H](C)C(=O)O[C@H]2C(C)C)O[C@@H]1C | 4 µg/mL | 0.3 µg/mL | –
CCC(C)C[C@H]1CC[C@H]([C@](C)(O)C(=O)N[C@@H]2C(=O)N3NCCC[C@@H]3C(=O)N(O)[C@@H](C)C(=O)NCC(=O)N3NCCC[C@H]3C(=O)N(O)[C@H](C)C(=O)O[C@H]2C(C)C)O[C@@H]1C (single isomer, unassigned) | 3.6 µg/mL | 0.3 µg/mL | –
CC[C@H](C)C[C@H]1CC[C@](O)([C@](C)(O)C(=O)N[C@@H]2C(=O)N3NCCC[C@@H]3C(=O)N[C@@H](C)C(=O)NCC(=O)N3NCCC[C@H]3C(=O)N(O)[C@H](C)C(=O)O[C@H]2C(C)C)O[C@@H]1C | > 100 µg/mL | – | –
CCC(C)C[C@H]1CC[C@](O)([C@](C)(O)C(=O)N[C@@H]2C(=O)N3NCCC[C@@H]3C(=O)N(O)[C@@H](C)C(=O)NCC(=O)N3NCCC[C@H]3C(=O)N[C@H](C)C(=O)OC2C)O[C@@H]1C (single isomer, unassigned) | 2 µg/mL | 1 µg/mL | –
CC[C@H](C)C[C@H]1CC[C@](O)([C@](C)(O)C(=O)N[C@@H]2C(=O)N3NCCC[C@@H]3C(=O)N(O)[C@@H](C)C(=O)NCC(=O)N3NCCC[C@H]3C(=O)N(O)[C@H](C)C(=O)O[C@H]2C(C)C)O[C@@H]1C | – | 0.27 µg/mL | IC50 [3]: 5.95 µM; Activity [4]: 1.8 µg/mL; IC50 [5]: 5.95 µM; IC50 [6]: 2.02 µM; EC50 [7]: 0.28 µg/mL (≈ 0.333 µM)
CC[C@@H](C)CC1CCC(O)([C@](C)(O)C(=O)NC2C(=O)N3NCCC[C@@H]3C(=O)N(O)[C@@H](C)C(=O)NCCC(=O)N3NCCC[C@H]3C(=O)N(O)[C@H](C)C(=O)O[C@H]2C(C)C)OC1C (stereo not given in full) | > 100 µg/mL | > 50 µg/mL | –
CC[C@H](C)C[C@H]1CC[C@](O)([C@](C)(O)C(=O)N[C@@H]2C(=O)N3NCCC[C@@H]3C(=O)N(OC)[C@@H](C)C(=O)NCC(=O)N3NCCC[C@H]3C(=O)N(OC)[C@H](C)C(=O)O[C@H]2C(C)C)O[C@@H]1C | 6 µg/mL | 3 µg/mL | –
CC[C@H](C)C[C@H]1CC[C@](O)([C@](C)(O)C(=O)N[C@@H]2C(=O)N3NCCC[C@@H]3C(=O)N(OC)[C@@H](C)C(=O)NCC(=O)N3NCCC[C@H]3C(=O)N(C)[C@H](C)C(=O)O[C@H]2C(C)C)O[C@@H]1C | 7 µg/mL | 20 µg/mL | –
CCC(C)C[C@H]1CC[C@](O)([C@](C)(O)C(=O)N[C@H]2COC(=O)[C@@H](C)NC(=O)[C@@H]3CCCNN3C(=O)CNC(=O)[C@H](C)N(O)C(=O)[C@H]3CCCNN3C2=O)O[C@@H]1C (single isomer, unassigned) | > 100 µg/mL | 26 µg/mL | –
CC[C@H](C)C[C@H]1CC[C@](O)([C@](C)(O)C(=O)N[C@@H]2C(=O)N3NCCC[C@@H]3C(=O)N(O)[C@@H](C)C(=O)N[C@H](C)C(=O)N3NCCC[C@H]3C(=O)N(O)[C@H](C)C(=O)O[C@H]2C(C)C)O[C@@H]1C | > 100 µg/mL | > 100 µg/mL | –
CC[C@H](C)C[C@H]1CC[C@](O)([C@](C)(O)C(=O)N[C@@H]2C(=O)N3CCCC[C@@H]3C(=O)N(O)[C@@H](C)C(=O)NCC(=O)N3NCCC[C@H]3C(=O)N(O)[C@H](C)C(=O)O[C@H]2C(C)C)O[C@@H]1C | 75 µg/mL | 20 µg/mL | –
CC(O)C(=O)N[C@@H]1C(=O)N2NCCC[C@@H]2C(=O)N(O)[C@@H](C)C(=O)NCC(=O)N2NCCC[C@H]2C(=O)N(O)[C@H](C)C(=O)O[C@H]1C(C)C (stereo in doubt; 25) | 23 µg/mL | 23 µg/mL | –
CC(O)C(=O)N[C@@H]1C(=O)N2NCCC[C@@H]2C(=O)N(O)[C@@H](C)C(=O)NCC(=O)N2NCCC[C@H]2C(=O)N(O)[C@H](C)C(=O)O[C@H]1C(C)C (stereo in doubt; 26) | > 100 µg/mL | > 20 µg/mL | –
